Reference: patent publication US20160097044A1, “Antimicrobial Enzyme Fusions Reduce Resistance and Kill Intracellular Staphylococcus aureus” (The United States of America, as Represented by the …, priority 2014, published 2016)

Legend:
[1] = system: S. aureus strain Newman; assay type: cell-based; conditions: tenth round compared to first exposure
Procedure: For the MIC repeated exposure method, MIC determinations were performed with S. aureus strain Newman. 100 μl of S. aureus strain Newman culture that survived at ½ the MIC (the first well with visible growth) for each round was inoculated into 5 ml TSB and cultivated to mid-log phase growth. This culture was used as the inoculum for the next round of MIC exposure (overnight growth), and the cycle was repeated for 10 rounds.
Development of resistance to the triple-acting fusion enzymes was tested on S. aureus strain Newman and compared to both parental enzymes applied individually or simultaneously. […] Survivors of the ten round exposure to peptidoglycan hydrolase were passaged five times in medium with no peptidoglycan hydrolase added. […] We compared our triple-acting fusions to small molecule antibiotics in similar assays.

[2] = system: S. aureus Newbould 305; test: Murine model of mastitis, bacterial load; assay type: in vivo, C57BL6/SJL mice; conditions: single 1.25 nmoles intramammary infusion 30 minutes post infection, 18 h
Procedure: (§1) FIG. 6a depicts the specific activity of peptidoglycan hydrolase fusion constructs in vitro in a turbidity reduction assay with S. aureus Newbould 305 resuspended in lysis buffer to an OD600nm of 1.0 and treated with 1 μM final concentrations of each peptidoglycan hydrolase. The maximum specific activity for three experiments are represented as an average with SEM error bars. FIG. 6b depicts the bacterial burden in mice with mastitis treated with recombinant peptidoglycan hydrolases. Colony Forming Units (CFUs) from infected murine mammary glands following a single treatment with 50 μl of 25 μM peptidoglycan hydrolase (1.25 nmol). Each data point represents the average of duplicate bacterial platings. The horizontal bars represent the average CFU/mg for each group. FIG. 6c illustrates the TNFα response in mice with mastitis that were treated with peptidoglycan hydrolases. Data represents a minimum of 7 measurements in duplicate. Log TNFα was used for statistical analysis. Single asterisks indicate a significant difference from buffer control (p<0.05); double asterisks indicate a significant difference from the parental enzyme (p<0.05).
To evaluate the efficacy of purified, individually administered peptidoglycan hydrolases in a murine model of bovine mastitis, female C57BL6/SJL mice were challenged by the intramammary route with 100 CFU S. aureus Newbould 305 in 50 μl buffer. A single 1.25 nmoles intramammary infusion of each desired peptidoglycan hydrolase (50 μl of a 25 μM solution) or 50 μl PBS was given 30 minutes post infection [with up to six glands treated per animal, each gland receiving a unique treatment] as described earlier (Schmelcher et al. 2012. Appl. Environ. Microbiol. 78:2297-2305; Kerr et al. 2001. Nat. Biotechnol. 19:66-70). Dams were euthanized 18 h post infusion, the mammary glands were aseptically dissected, and portions of the gland were used for determination of bacterial load and TNFα concentrations, as described previously (Schmelcher et al., supra).
Statistical analysis: The variables were analyzed as two-factor mixed models with Treatment as the factor and Mouse as random Blocks. This model […] within mouse correlations. Log(TNFα) was used. The variance grouping technique was used for log CFU and log TNFα to correct for variance heterogeneity. Means comparisons were done with Sidak adjusted p-values so that the experiment-wise error was 0.05. Log(TNFα) is back-transformed to the original units for graphing.

[3] = system: S. aureus Newbould 305; test: Turbidity reduction assay; assay type: cell-based; conditions: 1 μM enzyme, cells at OD600nm 1.0, FIG. 6a
Procedure: as §1
FIG. 7 depicts a turbidity reduction assay of select peptidoglycan hydrolases against S. aureus Newbould 305. Bacterial cells were resuspended in lysis buffer to an OD600nm of 1.0 and lysed with 1 μM final concentrations of each peptidoglycan hydrolase. The maximum rate of ΔOD of three experiments are represented as an average with error bars representing SEM. Double asterisks indicate significant difference from parental. Mean comparisons were performed with one way ANOVA (P=3.3×10^−5) with t test post hoc analysis with Sidák adjusted alpha (p<0.01).

[4] = system: intracellular S. aureus strain ISP479C in human brain microvascular endothelial cells (hBMEC); test: Intracellular S. aureus eradication assay in hBMEC; assay type: cell-based; conditions: 5 μg/ml, 1 h
Source text: FIGS. 5a-5e depict peptidoglycan hydrolase-protein transduction domain (PGH-PTD) eradication of intracellular S. aureus in cultured cells. Cultured cells were infected, treated with gentamicin to kill extracellular S. aureus, and then treated with the peptidoglycan hydrolases indicated. All results are standardized to the gentamicin (GENT) only control. Nomenclature of the peptidoglycan hydrolase constructs is as in FIG. 1. Asterisks indicate statistical significance detected with single factor ANOVA (α=0.05) with paired t-test posthoc analyses α=0.05 adjusted with Sidák correction for multiple comparisons (for all cases p<0.01). […] Error bars represent SEM. […] Yellow staining in the combined panel represents intracellular co-localization (in a single plane as determined by z-stack analysis) of both S. aureus and K-L-PTD1 (blue arrow). […]
Three similar intracellular S. aureus eradication assays from three different labs were optimized for (A) a cultured bovine mammary epithelial cell line (MAC-T, Nexia Biotechnologies, Quebec, Canada; Almeida, supra), (B) primary C57BL/6 mouse-derived osteoblasts (mOBs) (McCall et al. 2008. J. Bone Miner. Res. 23: 30-40) or (C) human brain microvascular endothelial cells (hBMEC; Stins, supra). […] The cell lysate was subjected to serial dilution plating, and the resultant CFUs were counted and normalized to the gentamicin control for each assay. […]

[5] = system: S. aureus strain ALR; test: Rat nasal colonization model; assay type: in vivo, Wistar rats
Source text: FIGS. 1a-1c depict peptidoglycan hydrolase construct schematics, resistance development and effectiveness in eradicating S. aureus carriage in a rat colonization model. FIG. 1a is a schematic of the peptidoglycan hydrolase constructs. Domains: CHAP endopeptidase (CHAP, red box); N-acetylmuramoyl-L-alanine amidase (AMID, green box); M23 endopeptidase (PEP, blue oval); CBDs (LysK SH3b, gold diamond; lysostaphin SH3b, gold diamond with dot); protein transduction domain (PTD, blue circle); hexahistidine purification tag (His6). Domains are not to scale. Specific peptidoglycan cut sites are illustrated in FIG. 3a. FIG. 1b depicts in vitro antimicrobial resistance development. Engineered triple fusions K-L and L-K suppress antimicrobial resistance development compared to LysK (K), lysostaphin (L), or a combination of equimolar concentrations of both (L+K). Changes in Minimum Inhibitory Concentrations (MIC) are depicted as a fold-change at the tenth round of sublethal exposure compared to the first exposure, with the average fold-change of 4 replicates in red. Error bars=SEM. First exposure MICs: Lysostaphin, 0.77 μg/ml (27 nM); LysK, 47 μg/ml (840 nM); Lysostaphin and LysK (L+K) in combination 0.2 μg/ml (7 nM and 3 nM, respectively); triple fusion K-L, 7 μg/ml (97 nM); triple fusion L-K, 7.8 μg/ml (107 nM). FIG. 1c depicts reduction in colonization in a rat nasal carriage model. Rats were inoculated with S. aureus strain ALR on Day 1. After 5 days, the rats were treated twice daily for 3 days with 20 μl of a 10 mg/ml solution of each enzyme. The rat noses were excised on day 10, homogenized, and quantitative cultures were performed. Each point represents the CFU recovered from an individual rat. Bars indicate the median CFU/nose recovered from treated rats. […] Data were compiled from five independent experiments. Lyso=commercially purchased lysostaphin (AMBI, Tarrytown, N.Y.). Statistical comparisons were made with the Mann-Whitney test. SEQ ID NOs of depicted peptidoglycan hydrolase constructs: Lysostaphin (SEQ ID NO:1); Lysostaphin-PTD1-4, 6-12 (SEQ ID NOs:9, 11, 13, 15, 17, 19, 21, 23, 25, 27, 29, respectively); LysK (SEQ ID NO:3); LysK-PTD1-11 (SEQ ID NOs: 31, 33, 35, 37, 39, 41, 43, 45, 47, 49, 51, respectively); LysK-Lysostaphin Fusion K-L (SEQ ID NO:5); K-L-PTD1-4, 6-11 (SEQ ID NOs:53, 55, 57, 59, 61, 63, 65, 67, 69, 71, respectively); Lysostaphin-LysK Fusion L-K (SEQ ID NO:7).
Reduction in nasal colonization was observed when rats were challenged on day 0 with 10^7 CFU S. aureus strain ALR and then treated twice per day on days 5, 6, and 7 with 10 μl of 2% mupirocin calcium ointment (Bactroban Nasal) or petrolatum/softisan placebo. Noses from rats were homogenized and cultured quantitatively on day 10. Each point represents the CFU recovered from an individual rat, and the data were compiled from two independent experiments. Data were analyzed by the Mann-Whitney test, and horizontal lines represent median values. Mupirocin reduced colonization ˜98% compared to the placebo control.
The rat nasal colonization model is an adaptation of the mouse nasal colonization model that we described previously (Schaffer et al. 2006. Infect. Immun. 74:2145-2153). All animal experiments were conducted in accordance with a protocol approved by the appropriate Institutional Animal Care and Use Committees. Wistar rats (5 to 6 wks of age) were obtained from Charles River Laboratories (Wilmington, Mass.) and given food and water ad libitum. The animals were housed two per cage in a modified barrier facility under viral antibody-free conditions. The rats were given drinking water containing streptomycin sulfate (0.5 g/liter; Sigma) 1 day prior to bacterial inoculation and for the course of the experiment. The drinking water and cages were changed three times per week. […]

Trimethoprim/sulfamethoxazole [reference compound]
increase in MIC after 10 rounds of sub-lethal exposure [1]: 6 fold

[H]/N=C(/N)N[C@H]1[C@H](O)[C@@H](O)[C@H](O[C@@H]2O[C@@H](C)[C@](O)(C=O)[C@H]2O[C@@H]2O[C@@H](CO)[C@H](O)[C@@H](O)[C@@H]2NC)[C@@H](N/C(N)=N\[H])[C@@H]1O [streptomycin, reference compound]
increase in MIC after 10 rounds of sub-lethal exposure [1]: 13 fold

L-PTD9: lysostaphin with PTD 9 (TAT 48-60); SEQ ID NO:23
bacterial load / clearance of mammary glands (in words) [2]: capable of reducing bacterial load within the mouse mammary glands relative to the PBS buffer control
turbidity reduction (in vitro lytic) activity [3]: virtually inactive
turbidity reduction (in vitro lytic) activity ([3]; listed as 1-PTD9): reduced the in vitro activity

1-PTD12: lysostaphin with PTD 12 (TAT 49-57); SEQ ID NO:29
intracellular S. aureus CFUs relative to gentamicin only control [4]: reduce the intracellular S. aureus strain ISP479C

lysostaphin (AMBI, Tarrytown, N.Y.): commercially purchased lysostaphin (AMBI, Tarrytown, N.Y.)
decrease in CFU/nose (nasal colonization) compared to rats treated with buffer ([5]; 200 μg intranasally twice a day on days 5, 6, 7, noses cultured day 10): 87%

C/C(=C\C(=O)OCCCCCCCCC(=O)O)C[C@@H]1OC[C@H](C[C@@H]2O[C@H]2[C@@H](C)[C@H](C)O)[C@@H](O)[C@H]1O [Mupirocin, mupirocin, reference compound]
reduction in nasal colonization compared to placebo control ([5]; 10 μl of 2% mupirocin calcium ointment twice per day on days 5, 6, 7, separate experiment): 98%
